“Also recorded” adds a separate entry of the source. Like-named read-outs stand apart in the source and are kept apart here.
How the values were obtained:
SERCA2a [1] = molecular target: T1, SERCA2a (Sus scrofa, UniProt P11607); experiment: NADH-linked Ca2+-ATPase activity assay in pig cardiac SR (pCSR) vesicles; assay type: biochemical; conditions: for Ca2+-ATPase C10: concentration yielding 10% effect; for Decrease of ΔFMAX and ΔFMID for Ca2+-ATPase activity: both [Ca2+], stated as size of decrease
T1 construct: Cardiac SR vesicles were isolated from fresh porcine left ventricular tissue using differential centrifugation; from tissue; host or cells: porcine left ventricular tissue (cardiac SR vesicles)
Procedure: (§1) Cardiac SR vesicles were isolated from fresh porcine left ventricular tissue using differential centrifugation of the homogenized tissue as previously described. The SR vesicles were flash-frozen and stored at − 80 °C until needed. The SERCA concentration in the ER preparations purified from HEK cell homogenate is at least 10 times less than in purified porcine cardiac SR[20], but there was sufficient expression of the fluorescent SERCA2a biosensor in HEK cells to detect FRET with high precision by FLT[22],[23],[26].
Functional assays were performed using porcine cardiac SR (pCSR) vesicles. An enzyme-coupled, NADH-linked ATPase assay was used to measure SERCA ATPase activity in 384-well microplates. Each well contained 50 mM MOPS (pH 7.0), 100 mM KCl, 1 mM EGTA, 0.2 mM NADH, 1 mM phosphoenol pyruvate, 10 IU/mL of pyruvate kinase, 10 IU/mL of lactate dehydrogenase, 7 µM of the calcium ionophore A23187 (Sigma), and CaCl2 was added to set free [Ca^2+] to three different concentrations. Ca^2+-ATPase activity was measured at three [Ca^2+]: [Ca^2+]MAX (saturating, pCa 5.4), [Ca^2+]MID (subsaturating, midpoint, pCa 6.2), and [Ca^2+]BAS (basal non-activating, pCa 8.0). 10 μg/mL of SR vesicle, calcium, compound (0.048 to 50 μM), and assay mix were incubated for 20 min at room temperature before measurement of functional assays with each of the 18 hit compounds, because a shorter incubation time than the FRET live-cell assays achieved optimal responses. The assay was started upon the addition of MgATP, at a final concentration of 5 mM (total volume to 80 μL), and absorbance was read at 340 nm in a SpectraMax Plus^384 microplate spectrophotometer (Molecular Devices, Sunnyvale, CA).
(§2) SERCA2a activity, F (rate of ATP hydrolysis or Ca^2+ uptake), was measured at varying pCa and varying compound concentration. F measured at [Ca^2+]MAX (saturating, pCa 5.4) or [Ca^2+]MID (subsaturating, midpoint, pCa 6.2) was corrected by subtracting the basal rate at pCa 8.0) and the % effect due to compound was reported. Concentration response curves (CRC) were fitted using the Hill function to determine VMAX (the activity at saturating [compound]), and EC50, the compound concentration at 50% effect.

SERCA2a [2] = molecular target: T1, SERCA2a; experiment: Oxalate-supported Fluo-4 Ca2+-uptake (Ca2+-transport) assay in pig cardiac SR (pCSR) vesicles; assay type: biochemical; conditions: for Ca2+-Uptake C10: concentration yielding 10% effect; for CR (coupling ratio) VU/VA: maximum Ca2+-uptake rate / Ca2+-ATPase rate at [Ca2+]MAX, DMSO control = 0.66; for Inhibition of Ca2+-uptake (class): strong / moderate / mild; for Decrease of ΔFMAX and ΔFMID for Ca2+-uptake: both [Ca2+], stated as size of decrease
Procedure: as §1
Ca^2+-transport assays were performed with similar porcine SR samples as in the Ca^2+-ATPase assays described above. The compound effect on the Ca^2+-transport activity of SERCA2a was determined using an oxalate-supported assay in which the change in fluorescence in a Ca^2+-sensitive dye, Fluor-4, was determined as previously described. A buffered solution containing 50 mM MOPS (pH 7.0), 100 mM KCl, 30 mg/mL sucrose, 1 mM EGTA, 10 mM potassium oxalate, 2 µM Fluo-4, 30 µg/mL porcine cardiac SR vesicles, CaCl2 calculated to reach the free [Ca^2+] (pCa 8.0, 6.2, and 5.4), and compound (0.048 to 50 μM) was dispensed into 384-well black walled, transparent bottomed plates (Greiner Bio-One) containing the tested small molecule and incubated at 22℃ for 20 min while covered and protected from light. To start the reaction, MgATP was added to a final concentration of 5 mM, and the decrease in 485-nm excited fluorescence of Fluo-4 was monitored at 520 nm for 15 min using a FLIPR Tetra (Molecular Devices, San Jose, CA).
as §2

[3] = molecular target: T2, human two-color SERCA2a (2CS) biosensor (Homo sapiens, UniProt P16615, INS508[…]); experiment: FRET concentration response curves (FLT-FRET) with the 2CS biosensor in live HEK cells; assay type: cell-based
T2 construct: expressed in transfected cells
Description: A two-color intramolecular human SERCA2a (2CS) biosensor, based on human cardiac SERCA2a fused to green fluorescent protein (eGFP) and red fluorescent protein (tagRFP) was developed to detect structural changes that are related to the functional changes of SERCA[20],[22],[25]. Briefly, tagRFP was genetically fused to the N-terminus of SERCA (A-domain) and eGFP was inserted as an intrasequence tag before residue 509 in the nucleotide-binding domain (N-domain)[60],[61]. Donor-only and acceptor-only (1CS) biosensors were created in a similar manner as the 2CS biosensor but with the construct containing either only eGFP or only tag-RFP, respectively. […] A null-biosensor construct consisting of eGFP and tagRFP connected by a 32-residue unstructured flexible linker peptide (G32R) was created as described previously[23],[25]. All constructs were cloned into expression vectors containing the genes for antibiotic resistance to G418, puromycin, or blasticidin.
Stable cell lines were generated using either human embryonic kidney (HEK) HEK293 (ATCC, Manassas, VA) or HEK293-6E (National Research Council, Canada) cells. Briefly, cells were transiently transfected with 2CS, 1CS, or G32R null-biosensor plasmids using Lipofecatime 3000 or 293fectin (Thermo Fisher Scientific). Flow cytometry was used to select and enrich for the population of cells expressing respective biosensors. Stable HEK293 cell lines were maintained in phenol red-free DMEM media (Gibco, Waltham, MA) supplemented with 2 mM GlutaMAX (Gibco, Waltham, MA), 10% fetal bovine serum (FBS) (Atlanta Biologicals, Lawrenceville, GA), 1 IU/mL penicillin/streptomycin (Gibco, Waltham, MA), and 250 μg/mL G418 (Fisher Scientific). Stable HEK293-6E cell lines were maintained in F17 media (Sigma Aldrich) supplemented with Kolliphor p188 (Sigma Aldrich, St. Louis, MO), […] GlutaMAX, and either 1 μg/mL puromycin (Invitrogen, Carlsbad, CA) or 2 μg/mL blasticidin (Goldbio) as a selection antibiotic. All cell lines were grown at 37 °C with 5% CO2.
FRET CRC assay plates (0.78–100 μM compound range) with at least ten different compound concentrations were made by adding the appropriate volume of compound or DMSO into black 384 well plates (Greiner Bio-One) using a Mosquito HV (SPTLabTech, United Kingdom). Subsequent Ca^2+-ATPase activity and Ca^2+-transport CRC assay plates (0–50 μM compound range) with repurchased compounds were made in a similar manner using with the Echo 550 (Beckman Coulter) using either 384 well transparent plates (Greiner Bio-One) or black-walled plates with transparent bottoms (Greiner Bio-One), respectively.
On each day of screening, cells were harvested, washed three times with PBS, and centrifuged at 300 g for 5 min. Cells were filtered using a 70 µm cell strainer and diluted to 1–2 × 10^6 cells/mL. Cell concentration and viability were assessed using the Cell countess (Invitrogen) and trypan blue assay. During assays, cells were constantly and gently stirred using a magnetic stir bar at room temperature, keeping the cells in suspension and evenly distributed to avoid clumping. HEK 293-cells expressing 2CS were dispensed at 5 μL or […] per well into assay plates (dispensed into 40 assay plates, each containing 1536 wells) pre-plated with compounds (from a DIVERset 50,000 compound library) using a Multdrop Combi liquid dispenser (Thermo Fisher Scientific, Pittsburg, PA) and sealed until needed. Because the kinetics of membrane permeability, diffusion, and/or binding of the compound to live cells may be compound-dependent, we tested two incubation times, 20 min and 120 min, for the FRET CRC. […] Plates containing eight-point concentration curves of three tool compounds (known SERCA effectors thapsigargin, BHQ, and CPA)[22] were used as positive controls for biosensor function and performance prior to running the full-scale FRET-HTS assay. […]

SERCA2a [4] = molecular target: T1, SERCA2a; design: method as in PMID 32397211; conditions: read-out: EC50 of SERCA inhibition; cited from earlier work

T2 sequence (P16615 other isoform, or with tags, fused parts or gaps with the stated changes): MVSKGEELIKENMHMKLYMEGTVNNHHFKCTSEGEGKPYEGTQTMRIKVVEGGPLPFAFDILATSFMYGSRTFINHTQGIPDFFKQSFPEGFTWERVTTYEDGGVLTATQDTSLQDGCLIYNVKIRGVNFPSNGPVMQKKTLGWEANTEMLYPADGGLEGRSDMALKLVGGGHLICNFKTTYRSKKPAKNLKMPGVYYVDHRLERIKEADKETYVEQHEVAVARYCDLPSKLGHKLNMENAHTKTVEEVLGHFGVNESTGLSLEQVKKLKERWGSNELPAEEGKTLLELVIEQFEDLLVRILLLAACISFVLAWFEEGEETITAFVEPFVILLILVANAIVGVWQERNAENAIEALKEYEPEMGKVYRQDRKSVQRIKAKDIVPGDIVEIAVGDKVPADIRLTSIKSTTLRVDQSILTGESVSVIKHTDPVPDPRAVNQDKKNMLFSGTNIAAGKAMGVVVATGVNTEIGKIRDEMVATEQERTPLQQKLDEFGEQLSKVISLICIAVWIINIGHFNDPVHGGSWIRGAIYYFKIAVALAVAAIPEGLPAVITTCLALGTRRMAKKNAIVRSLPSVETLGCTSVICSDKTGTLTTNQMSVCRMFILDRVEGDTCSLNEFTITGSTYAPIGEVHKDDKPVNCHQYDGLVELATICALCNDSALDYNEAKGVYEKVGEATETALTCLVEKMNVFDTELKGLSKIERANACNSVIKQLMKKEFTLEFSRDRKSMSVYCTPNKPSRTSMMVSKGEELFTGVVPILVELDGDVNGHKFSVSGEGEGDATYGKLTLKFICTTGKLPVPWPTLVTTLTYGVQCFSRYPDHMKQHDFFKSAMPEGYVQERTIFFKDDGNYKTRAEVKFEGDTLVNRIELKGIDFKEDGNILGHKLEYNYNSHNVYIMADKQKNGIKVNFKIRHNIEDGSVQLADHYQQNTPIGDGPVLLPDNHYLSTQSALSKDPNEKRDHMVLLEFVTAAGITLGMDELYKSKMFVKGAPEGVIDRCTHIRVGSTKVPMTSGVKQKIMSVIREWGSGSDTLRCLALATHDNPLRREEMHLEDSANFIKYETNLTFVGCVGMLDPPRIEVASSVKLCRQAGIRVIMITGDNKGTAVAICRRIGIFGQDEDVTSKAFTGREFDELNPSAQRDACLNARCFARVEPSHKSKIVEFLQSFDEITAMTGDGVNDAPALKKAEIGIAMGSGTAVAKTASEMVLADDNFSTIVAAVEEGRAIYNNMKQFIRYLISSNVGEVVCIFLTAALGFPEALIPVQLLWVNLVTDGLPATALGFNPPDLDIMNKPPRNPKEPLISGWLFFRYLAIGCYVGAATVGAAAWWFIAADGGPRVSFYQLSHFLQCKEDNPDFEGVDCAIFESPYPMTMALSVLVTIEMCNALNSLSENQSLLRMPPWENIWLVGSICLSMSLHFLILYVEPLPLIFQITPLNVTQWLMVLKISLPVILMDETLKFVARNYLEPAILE
T1 sequence (P11607 1-997 isoform P11607-2): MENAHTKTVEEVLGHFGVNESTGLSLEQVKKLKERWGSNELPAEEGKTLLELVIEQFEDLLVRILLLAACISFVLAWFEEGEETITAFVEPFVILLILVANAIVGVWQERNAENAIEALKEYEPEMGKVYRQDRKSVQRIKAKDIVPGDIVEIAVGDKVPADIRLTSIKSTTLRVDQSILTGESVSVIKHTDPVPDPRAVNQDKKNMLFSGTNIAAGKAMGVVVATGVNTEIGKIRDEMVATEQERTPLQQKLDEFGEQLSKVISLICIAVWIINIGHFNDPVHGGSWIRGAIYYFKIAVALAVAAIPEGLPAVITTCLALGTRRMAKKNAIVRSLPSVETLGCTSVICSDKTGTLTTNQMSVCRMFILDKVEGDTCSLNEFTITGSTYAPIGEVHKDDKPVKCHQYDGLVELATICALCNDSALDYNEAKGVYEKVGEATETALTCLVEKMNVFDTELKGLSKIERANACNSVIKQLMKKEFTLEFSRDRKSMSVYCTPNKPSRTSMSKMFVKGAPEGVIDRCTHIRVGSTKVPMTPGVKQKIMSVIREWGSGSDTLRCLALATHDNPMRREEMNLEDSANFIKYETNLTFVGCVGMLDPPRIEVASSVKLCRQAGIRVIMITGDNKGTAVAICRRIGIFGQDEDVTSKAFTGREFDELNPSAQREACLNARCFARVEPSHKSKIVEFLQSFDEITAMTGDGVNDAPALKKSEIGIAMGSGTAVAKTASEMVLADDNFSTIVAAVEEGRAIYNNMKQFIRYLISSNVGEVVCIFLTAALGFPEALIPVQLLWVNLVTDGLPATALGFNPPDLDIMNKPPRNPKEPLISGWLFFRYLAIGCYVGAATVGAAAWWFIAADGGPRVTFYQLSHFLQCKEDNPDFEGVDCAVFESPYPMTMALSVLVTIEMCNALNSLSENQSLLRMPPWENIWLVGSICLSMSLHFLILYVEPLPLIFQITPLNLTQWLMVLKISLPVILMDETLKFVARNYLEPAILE

Compound	EC50 (SERCA2a [1]; [Ca2+]MAX (pCa5.4)) [µM]	Ca2+-ATPase C10 (SERCA2a [1]; [Ca2+]MAX (pCa5.4)) [µM]	EC50 (SERCA2a [1]; [Ca2+]MID (pCa6.2)) [µM]	Ca2+-ATPase C10 (SERCA2a [1]; [Ca2+]MID (pCa6.2)) [µM]	EC50 (SERCA2a [2]; [Ca2+]MAX (pCa5.4)) [µM]	Ca2+-Uptake C10 (SERCA2a [2]; [Ca2+]MAX (pCa5.4)) [µM]	EC50 (SERCA2a [2]; [Ca2+]MID (pCa6.2)) [µM]	Ca2+-Uptake C10 (SERCA2a [2]; [Ca2+]MID (pCa6.2)) [µM]	CR (coupling ratio) VU/VA (SERCA2a [2])	Inhibition of Ca2+-uptake (class) (SERCA2a [2])	EC50 [3] [µM]	Decrease of ΔFMAX and ΔFMID for Ca2+-ATPase activity (SERCA2a [1])	Decrease of ΔFMAX and ΔFMID for Ca2+-uptake (SERCA2a [2])	EC50 (SERCA2a [4]) [nM]
CCc1ccc(S(=O)(=O)N2CCCC(C(=O)c3sccc3C)C2)cc1 (stereo not drawn) [Compound 14, {1-[(4-ethylphenyl)sulfonyl]-3-piperidinyl}(3-methyl-2-thienyl)methanone]	13 ± 11	6.3	8.9 ± 2.2	3.2	3.4 ± 0.2	1.3	3.9 ± 0.2	1.7	0.16	M → S; also recorded: moderate-to-strong	9.2 ± 1.1	–	–	–
CCC(C)(C)c1nnc(NC(=O)NCc2ccc(F)cc2F)s1 [Compound 15, N-(2,4-difluorobenzyl)-N'-[5-(1,1-dimethylpropyl)-1,3,4-thiadiazol-2-yl]urea]	–	0.7	–	0.4	–	0.9	–	1.7	0.19	–	16 ± 4.7	~ 50%	70–95%	–
O=S(=O)(NCc1ccccc1)N1CCc2ccc(C(F)(F)F)cc2C1 [Compound 17, N-benzyl-7-(trifluoromethyl)-3,4-dihydroisoquinoline-2(1H)-sulfonamide]	–	6.2	–	5	–	1	–	2.2	0.09	–	32 ± 5.3	~ 50%	70–95%	–
Cc1nc(N2CCCCCCC2)ncc1C(C)NC(=O)c1ccnn1C (stereo not drawn) [Compound 18, N-{1-[2-(1-azocanyl)-4-methyl-5-pyrimidinyl]ethyl}-1-methyl-1H-pyrazole-5-carboxamide]	–	2.2	0.18 ± 0.2	1	–	8.6	–	22.7	0.49	Mild → M; also recorded: mild-to-moderate	3 ± 0.3	–	–	–
C/C=C(/C)C(=O)O[C@H]1C(C)=C2[C@H]([C@@H]1OC(=O)CCCCCCC)[C@@](C)(OC(C)=O)C[C@H](OC(=O)CCC)[C@@]1(O)[C@H]2OC(=O)[C@@]1(C)O [Tg, thapsigargin]	–	–	–	–	–	–	–	–	–	–	–	–	–	~7.5
